Data set [1] in a line: Long-term stability study at 40° C., oxytocin monomers by HP-SEC. The note with it: 10 mM citrate buffer and 50 mM Ca2+, pH 4.5, 6 months at 40° C. It is filed as physicochemical. The protocol:
(§1) A long-term stability study was performed to assess the thermal stability of pH-buffered oxytocin formulations comprising divalent metal ions over prolonged periods. Citrate buffer (CB) was added in concentrations of 5, 10 or 50 mM to formulations comprising 0.1 mg/ml oxytocin and 0, 10 or 50 mM Ca^2+ (CaCl2). […] Samples of each formulation were stored for 1, 2, 3 or 6 months at 40° C. Thereafter, all samples were stored under cooled conditions (2-8° C.) before analysis by RP-HPLC and HP-SEC. Effects on stability were determined by measuring the recovery of oxytocin and the percentage of oxytocin-monomers.

The nature of data set [2]: Oxytocin recovery by RP-HPLC after 4 weeks storage at 4 or 55° C. It is filed as physicochemical. Particulars: pH 4.5, 4 weeks. The procedure: As shown herein below, the stabilizing effect of the combination of a buffer and at least one source of divalent metal ions at a concentration of at least 2 mM in an aqueous oxytocin formulation was determined by measuring the recovery of oxytocin (remaining oxytocin as % of initial amount), the amount of oxytocin-monomers (% of total remaining oxytocin) and/or the level of aggregation (aggregated oxytocin as % of total remaining oxytocin) upon prolonged storage at elevated (e.g. 55° C.) temperatures. These parameters can be assessed by using any method for analysis deemed suitable by a person skilled in the art. Examples of suitable methods for analysis include, but are not limited to, reversed-phase high-performance liquid chromatography (RP-HPLC) and high-performance size exclusion chromatography (HP-SEC). Thus, suitable concentrations of divalent metal ions to achieve the stabilizing effect at elevated temperatures can be determined by those skilled in the art. They may vary, e.g. depending on the composition of the formulation or its intended application. In one embodiment, a formulation comprises oxytocin or vasopressin and at least 2 mM, preferably at least 5, more preferably at least 10 mM divalent metal ions and a buffer. In another embodiment, a pH-buffered formulation comprises divalent metal ions in a concentration of up to 150 mM, preferably up to 100 mM, more preferably up to 50 mM. For example, a formulation comprises divalent metal ions in a concentration between 5 and 150 mM, preferably between 10 and 100 mM, more preferably between 10 and 50 mM. In one embodiment, between 2 and 150 mM divalent metal ions, preferably 5-100 mM, such as 10, 20, 25, 30, 40 or 50 mM, and a buffer are used to stabilize an aqueous peptide formulation. In another embodiment, a divalent metal ion concentration in the range from 20 to 100 mM is used, like 30-100 mM, 40-80 mM or 50-70 mM. Other suitable ranges include between 2 and 50 mM, between 30 and 60 mM and between 40 and 70 mM divalent metal ions. […]
Samples of each formulation were stored for 4 weeks at 4° C. (control) or 55° C. (test). Thereafter, all samples were stored under cooled conditions (2-8° C.) before analysis by RP-HPLC and HP-SEC. Effects on stability were determined by measuring the recovery of oxytocin and the percentage of oxytocin-monomers.
The thermal stability of oxytocin in the presence of combinations of a buffer and monovalent metal ions was investigated. Citrate buffer (CB), acetate buffer (AC) or aspartate buffer (AP) was used at a concentration of 10 mM. Monovalent metal ions Na^+ and K^+ were added in the form of their chloride salt (NaCl and KCl) and used in final concentrations of 10 and 20 mM. […] Samples of each formulation were stored for 4 weeks at 4° C. (control) or 55° C. (test). Thereafter, all samples were stored under cooled conditions (2-8° C.) before analysis by RP-HPLC and HP-SEC. Effects on stability were determined by measuring the recovery of oxytocin and the percentage of oxytocin-monomers.
Citrate buffer (CB) was used at concentrations of 5, 10 or 50 mM. Divalent metal ions (Ca^2+, Mg^2+ and Zn^2+) were added in the form of their chloride salt (CaCl2, MgCl2 and ZnCl2) and used in final concentrations of 0, 2, 5, 10 or 50 mM. […] Samples of each formulation were stored for 4 weeks at 4° C. (control) or 55° C. (test). Thereafter, all samples were stored under cooled conditions (2-8° C.) before analysis by RP-HPLC and HP-SEC. Effects on stability were determined by measuring the recovery of oxytocin and the percentage of oxytocin-monomers. The results are presented in FIGS. 4A and 4B (citrate buffer with Ca^2+), 5A and 5B (citrate buffer with Mg^2+) and 6A and 6B (citrate buffer with Zn^2+).
Divalent metal ions (Ca^2+, Mg^2+ and Zn^2+) were added in the form of their chloride salt (CaCl2, MgCl2 and ZnCl2) and used in final concentrations of 0, 2, 5, 10 or 50 mM. […] Samples of each formulation were stored for 4 weeks at 4° C. […]

For data set [3] the following is noted: oral tablets, simulated tropical conditions; cited from earlier work.
Data set [4] in a line: Precipitation of oxytocin in citrate buffer with Ca2+. It is filed as physicochemical. Particulars: 100 mM Ca2+. The procedure: Citrate buffer (CB) was used at concentrations of 5, 10 or 50 mM. […] Samples of each formulation were stored for 4 weeks at 4° C. (control) or 55° C. (test). Thereafter, all samples were stored under cooled conditions (2-8° C.) before analysis by RP-HPLC and HP-SEC. Effects on stability were determined by measuring the recovery of oxytocin and the percentage of oxytocin-monomers. The results are presented in FIGS. 4A and 4B (citrate buffer with Ca^2+), 5A and 5B (citrate buffer with Mg^2+) and 6A and 6B (citrate buffer with Zn^2+).

Data set [5] in a line: Long-term stability study at 40° C., oxytocin recovery by RP-HPLC. It is filed as physicochemical. The note with it: 10 mM citrate buffer and 50 mM Ca2+, pH 4.5, 6 months at 40° C. The procedure:
as §1

Data set [6] can be described thus: Oxytocin monomer recovery by HP-SEC after 4 weeks storage at 4 or 55° C. It is filed as physicochemical. The note with it: pH 4.5, 4 weeks. The protocol: As shown herein below, the stabilizing effect of the combination of a buffer and at least one source of divalent metal ions at a concentration of at least 2 mM in an aqueous oxytocin formulation was determined by measuring the recovery of oxytocin (remaining oxytocin as % of initial amount), the amount of oxytocin-monomers (% of total remaining oxytocin) and/or the level of aggregation (aggregated oxytocin as % of total remaining oxytocin) upon prolonged storage at elevated (e.g. 55° C.) temperatures. These parameters can be assessed by using any method for analysis deemed suitable by a person skilled in the art. Examples of suitable methods for analysis include, but are not limited to, reversed-phase high-performance liquid chromatography (RP-HPLC) and high-performance size exclusion chromatography (HP-SEC). Thus, suitable concentrations of divalent metal ions to achieve the stabilizing effect at elevated temperatures can be determined by those skilled in the art. They may vary, e.g. depending on the composition of the formulation or its intended application. In one embodiment, a formulation comprises oxytocin or vasopressin and at least 2 mM, preferably at least 5, more preferably at least 10 mM divalent metal ions and a buffer. In another embodiment, a pH-buffered formulation comprises divalent metal ions in a concentration of up to 150 mM, preferably up to 100 mM, more preferably up to 50 mM. For example, a formulation comprises divalent metal ions in a concentration between 5 and 150 mM, preferably between 10 and 100 mM, more preferably between 10 and 50 mM. In one embodiment, between 2 and 150 mM divalent metal ions, preferably 5-100 mM, such as 10, 20, 25, 30, 40 or 50 mM, and a buffer are used to stabilize an aqueous peptide formulation. In another embodiment, a divalent metal ion concentration in the range from 20 to 100 mM is used, like 30-100 mM, 40-80 mM or 50-70 mM. Other suitable ranges include between 2 and 50 mM, between 30 and 60 mM and between 40 and 70 mM divalent metal ions.
Divalent metal ions (Ca^2+, Mg^2+ and Zn^2+) were added as metal chloride salts (MC12) to a non-buffered formulation comprising oxytocin and pure water (W). The divalent metal ions were used at concentrations of 0, 2, 5, 10 and 50 mM. […] Effects on stability were determined by measuring the recovery of oxytocin and the percentage of oxytocin-monomers.
Samples of each formulation were stored for 4 weeks at 4° C. […] Effects on stability were determined by measuring the recovery of oxytocin and the percentage of oxytocin-monomers.
The thermal stability of oxytocin in the presence of combinations of a buffer and monovalent metal ions was investigated. […] Effects on stability were determined by measuring the recovery of oxytocin and the percentage of oxytocin-monomers. […]
(In general: In gel filtration, larger molecules generally elute earlier.)

For data set [7] the following is noted: cited from earlier work.

In the case of `CC[C@H](C)[C@@H]1NC(=O)[C@H](Cc2ccc(O)cc2)NC(=O)[C@@H](N)CSSC[C@@H](C(=O)N2CCC[C@H]2C(=O)N[C@@H](CC(C)C)C(=O)NCC(N)=O)NC(=O)[C@H](CC(N)=O)NC(=O)[C@H](CCC(N)=O)NC1=O` [oxytocin], the “portion remained in monomeric form” value in data set [1] is on record as “more than 80%”. Besides, in data set [2] (10 mM acetate buffer & 10 mM Na+), the “original quantity of oxytocin recovered” value was at most 35%. The “remaining percentage of oxytocin” value in data set [2] (10 mM acetate buffer with 50 mM Ca2+, 50 mM Mg2+ or 50 mM Zn2+) is on record as “Small increases”. Moreover, the figures for the stabilizing effect entry in data set [2] (10 mM aspartate buffer with Ca2+ or Mg2+) and in data set [2] (10 mM aspartate buffer with Zn2+ (2-50 mM)) were “only smaller effects” and “strong concentration-dependent stabilizing effect”, respectively. The oxytocin remained entry in data set [2] (10 mM aspartate buffer with Zn2+) is reported as “Up to 75%”. Further, the “thermal stability of oxytocin” value in data set [2] (10 mM citrate, acetate or aspartate buffer with 10 or 20 mM Na+ or K+) is reported as “minor effects”. Further, the oxytocin stability result is “only increased together with 50 mM Ca^2+” in data set [2] (50 mM citrate buffer with Ca2+); “only increased at 50 mM Mg^2+” in data set [2] (50 mM citrate buffer with Mg2+); “only increased at 50 mM Zn^2+” in data set [2] (50 mM citrate buffer with Zn2+); “Largest increases in stability” in data set [2] (5 or 10 mM citrate buffer and 50 mM Ca2+); “largest increases in stability” in data set [2] (5 or 10 mM citrate buffer and 50 mM Mg2+); “large increases in stability” in data set [2] (citrate buffer with 2 or 5 mM Zn2+). Moreover, the oxytocin stability result in data set [2] (citrate, acetate or aspartate buffer, no divalent metal ions) is reported as “small increase”. For the same compound, the stability of tablets entry in data set [3] is “not stable”. Besides, in data set [4], the precipitation entry is “precipitates were observed”. Besides, the “original amount of oxytocin preserved” value in data set [5] is recorded as “around 70%”. In addition, the “remaining oxytocin in monomeric form” value in data set [6] (10 mM acetate buffer & 10 mM Na+, 55° C.) was “around 30%”. For the same compound, the “percentage of oxytocin monomers” value in data set [6] (citrate buffer with Ca2+, 55° C.) is “up to 80%”. Also, in data set [6] (citrate buffer with Zn2+, 55° C.), the “percentage of remaining oxytocin monomers” value is on record as “up to 90%”. In addition, in data set [6] (non-buffered pure water with divalent metal ions, 4 or 55° C.), the remaining oxytocin-monomers result was “loss of monomers was only prevented at 4 °C in the presence of Ca^2+ or Zn^2+”. Further, in data set [7] (dissolved in commercially obtainable lactated Ringer's solution), the “effect on oxytocin stability” value is given as “no effect on oxytocin stability at all”. The stability of oxytocin entry in data set [7] (in Ringer's, room temperature, 0.08 IU/ml) is recorded as “already compromised after 30 days”.

On to `CC[C@H](C)[C@@H]1NC(=O)[C@H](Cc2ccc(O)cc2)NC(=O)CCSSC[C@@H](C(=O)N2CCC[C@H]2C(=O)N[C@@H](CC(C)C)C(=O)NCC(N)=O)NC(=O)[C@H](CC(N)=O)NC(=O)[C@H](CCC(N)=O)NC1=O` [desamino-oxytocin], for which the stability of tablets entry in data set [3] is “not stable”.

Turning to `C[C@@H](CO)NC(=O)[C@@H]1C=C2c3cccc4[nH]cc(c34)C[C@H]2N(C)C1` [ergometrine], in data set [3], the stability of tablets entry is reported as “not stable”.

Values taken from US20110237508A1, “Peptide Formulations and Uses Thereof” (RIJKSUNIVERSITEIT GRONINGEN, priority 2008, published 2011).
